Source: patent publication US10676465B2, “GLP-1 receptor agonists and uses thereof” (Pfizer Inc., priority 2018, dated 2020)
Read-outs that look alike come from different tables or passages of the source.

Columns and labels:
[1] = target: human GLP-1R (Homo sapiens, UniProt P43220, G168S); assay: CHO GLP-1R Clone H6 - Assay 1 (HTRF cAMP agonist assay); format: cell-based; conditions: for EC50: CHO GLP-1R Clone H6, cAMP HTRF, geometric mean
Description: GLP-1R-mediated agonist activity was determined with a cell-based functional assay utilizing an HTRF (Homogeneous Time-Resolved Fluorescence) cAMP detection kit (cAMP HI Range Assay Kit; CisBio cat #62AM6PEJ) that measures cAMP levels in the cell. The method is a competitive immunoassay between native cAMP produced by the cells and exogenous cAMP labeled with the dye d2. The tracer binding is visualized by a mAb anti-cAMP labeled with Cryptate. The specific signal (i.e. energy transfer) is inversely proportional to the concentration of cAMP in either standard or experimental sample.
The human GLP-1R coding sequence (NCBI Reference Sequence NP_002053.3, including naturally-occurring variant Gly168Ser) was subcloned into pcDNA3 (Invitrogen) and a cell line stably expressing the receptor was isolated (designated Clone H6).
Cells were removed from cryopreservation, re-suspended in 40 mL of Dulbecco's Phosphate Buffered Saline (DPBS—Lonza Cat #17-512Q) and centrifuged at 800×g for 5 minutes at 22° C. The cell pellet was then re-suspended in 10 mL of growth medium [DMEM/F12 1:1 Mixture with HEPES, L-Gln, 500 mL (DMEM/F12 Lonza Cat #12-719F), 10% heat inactivated fetal bovine serum (Gibco Cat #16140-071), 5 mL of 100× Pen-Strep (Gibco Cat #15140-122), 5 mL of 100×L-Glutamine (Gibco Cat #25030-081) and 500 μg/mL Geneticin (G418) (Invitrogen #10131035)]. A 1 mL sample of the cell suspension in growth media was counted on a Becton Dickinson ViCell to determine cell viability and cell count per mL. The remaining cell suspension was then adjusted with growth media to deliver 2000 viable cells per well using a Matrix Combi Multidrop reagent dispenser, and the cells were dispensed into a white 384 well tissue culture treated assay plate (Corning 3570). The assay plate was then incubated for 48 hours at 37° C. in a humidified environment in 5% carbon dioxide.
Varying concentrations of each compound to be tested (in DMSO) were diluted in assay buffer (HBSS with Calcium/Magnesium (Lonza/BioWhittaker cat #10-527F)/0.1% BSA (Sigma Aldrich cat # A7409-1L)/20 mM HEPES (Lonza/BioWhittaker cat #17-737E) containing 100 μM 3-isobutyl-1-methylxanthin (IBMX; Sigma cat #15879). The final DMSO concentration is 1%.
After 48 hours, the growth media was removed from the assay plate wells, and the cells were treated with 20 μL of the serially diluted compound in assay buffer for 30 minutes at 37° C. in a humidified environment in 5% carbon dioxide. Following the 30 minute incubation, 10 μL of labeled d2 cAMP and 10 μL of anti-cAMP antibody (both diluted 1:20 in cell lysis buffer; as described in the manufacturer's assay protocol) were added to each well of the assay plate. The plates were then incubated at room temperature and after 60 minutes, changes in the HTRF signal were read with an Envision 2104 multi-label plate reader using excitation of 330 nm and emissions of 615 and 665 nm. Raw data were converted to nM cAMP by interpolation from a cAMP standard curve (as described in the manufacturer's assay protocol) and the percent effect was determined relative to a saturating concentration of the full agonist GLP-17-36 (1 μM) included on each plate. EC50 determinations were made from agonist dose-response curves analyzed with a curve fitting program using a 4-parameter logistic dose response equation.

[2] = target: human GLP-1R (Homo sapiens (Human), UniProt P43220, L260F); assay: CHO GLP-1R Clone C6 - Assay 2 (HTRF cAMP agonist assay, low receptor density); conditions: for Emax: read-out: Assay 2 Emax (%), CHO GLP-1R Clone C6 (low receptor density), arithmetic mean, relative to saturating GLP-1 (1 μM)
Description: CHO GLP-1R Clone C6—Assay 2
GLP-1R-mediated agonist activity was determined with a cell-based functional assay utilizing an HTRF (Homogeneous Time-Resolved Fluorescence) cAMP detection kit (cAMP HI Range Assay Kit; Cis Bio cat #62AM6PEJ) that measures cAMP levels in the cell. The method is a competitive immunoassay between native cAMP produced by the cells and exogenous cAMP labeled with the dye d2. The tracer binding is visualized by a mAb anti-cAMP labeled with Cryptate. The specific signal (i.e. energy transfer) is inversely proportional to the concentration of cAMP in either a standard or an experimental sample.
The human GLP-1R coding sequence (NCBI Reference Sequence NP_002053.3, including naturally-occurring variant Leu260Phe) was subcloned into pcDNA5-FRT-TO and a clonal CHO cell line stably expressing a low receptor density was isolated using the Flp-In™ T-Rex™ System, as described by the manufacturer (ThermoFisher).
Cells were removed from cryopreservation, re-suspended in 40 mL of Dulbecco's Phosphate Buffered Saline (DPBS—Lonza Cat #17-512Q) and centrifuged at 800×g for 5 minutes at 22° C. The DPBS was aspirated, and the cell pellet was re-suspended in 10 mL of complete growth medium (DMEM:F12 1:1 Mixture with HEPES, L-Gln, 500 mL (DMEM/F12 Lonza Cat #12-719F), 10% heat inactivated fetal bovine serum (Gibco Cat #16140-071), 5 mL of 100× Pen-Strep (Gibco Cat #15140-122), 5 mL of 100×L-Glutamine (Gibco Cat #25030-081), 700 μg/mL Hygromycin (Invitrogen Cat #10687010) and 15 μg/mL Blasticidin (Gibco Cat # R21001). A 1 mL sample of the cell suspension in growth media was counted on a Becton Dickinson ViCell to determine cell viability and cell count per mL. The remaining cell suspension was then adjusted with growth media to deliver 1600 viable cells per well using a Matrix Combi Multidrop reagent dispenser, and the cells were dispensed into a white 384 well tissue culture treated assay plate (Corning 3570). The assay plate was then incubated for 48 hours at 37° C. in a humidified environment (95% O2, 5% CO2)
Varying concentrations of each compound to be tested (in DMSO) were diluted in assay buffer [HBSS with Calcium/Magnesium (Lonza/BioWhittaker cat #10-527F)/0.1% BSA (Sigma Aldrich cat # A7409-1L)/20 mM HEPES (Lonza/BioWhittaker cat #17-737E)] containing 100 μM 3-isobutyl-1-methylxanthin (IBMX; Sigma cat #15879). The final DMSO concentration in the compound/assay buffer mixture is 1%.
After 48 hours, the growth media was removed from the assay plate wells, and the cells were treated with 20 μL of the serially diluted compound in assay buffer for 30 minutes at 37° C. in a humidified environment (95% O2, 5% CO2). Following the 30 minute incubation, 10 μL of labeled d2 cAMP and 10 μL of anti-cAMP antibody (both diluted 1:20 in cell lysis buffer; as described in the manufacturer's assay protocol) were added to each well of the assay plate. The plates were then incubated at room temperature and after 60 minutes, changes in the HTRF signal were read with an Envision 2104 multi-label plate reader using excitation of 330 nm and emissions of 615 and 665 nm. Raw data were converted to nM cAMP by interpolation from a cAMP standard curve (as described in the manufacturer's assay protocol) and the percent effect was determined relative to a saturating concentration of the full agonist GLP-1 (1 μM) included on each plate. EC50 determinations were made from agonist dose response curves analyzed with a curve fitting program using a 4-parameter logistic dose response equation.

[3] = CHO GLP-1R Clone H6, arithmetic mean, relative to saturating GLP-1 (1 μM)
[4] = read-out: Assay 2 EC50, CHO GLP-1R Clone C6 (low receptor density), cAMP HTRF, geometric mean
[5] = Assay 2 EC50 (nM), CHO GLP-1R Clone C6 (low receptor density), cAMP HTRF, geometric mean

human GLP-1R (Homo sapiens, UniProt P43220, G168S), sequence (P43220 24-463 G168S limits assumed): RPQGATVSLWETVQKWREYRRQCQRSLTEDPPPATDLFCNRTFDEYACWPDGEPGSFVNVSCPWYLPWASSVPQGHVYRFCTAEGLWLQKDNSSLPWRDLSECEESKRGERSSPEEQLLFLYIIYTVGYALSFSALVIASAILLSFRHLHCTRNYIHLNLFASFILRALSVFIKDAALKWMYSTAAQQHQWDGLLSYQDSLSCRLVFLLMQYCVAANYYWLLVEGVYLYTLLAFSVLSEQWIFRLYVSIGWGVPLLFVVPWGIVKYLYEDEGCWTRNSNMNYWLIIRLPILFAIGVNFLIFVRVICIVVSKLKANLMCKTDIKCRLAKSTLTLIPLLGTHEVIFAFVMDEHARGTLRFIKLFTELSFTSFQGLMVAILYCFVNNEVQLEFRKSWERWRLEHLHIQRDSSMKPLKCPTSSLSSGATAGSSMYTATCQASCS
human GLP-1R (Homo sapiens (Human), UniProt P43220, L260F), sequence (P43220 24-463 L260F): as the sequence (P43220 24-463 G168S limits assumed) above, with S145G, L237F counted along it

EC50 [1] [nM]	Emax [1, 3] [%]	EC50 [2, 4] [nM]	Emax [2] [%]	Assay 1 Emax (%) [1, 3] [%]	EC50 [2, 5] [nM]	EC50 ([2]; read-out: EC50 in Assay 2, CHO GLP-1R Clone C6, cAMP, geometric mean of replicates) [nM]	SMILES
29	110	54	110	–	–	–	CC1(c2ccc(Cl)cc2F)Oc2cccc(C3CCN(Cc4nc5ccc(C(=O)O)nc5n4Cc4cnco4)CC3)c2O1 (centres unmarked) [Example 81, 2-({4-[2-(4-chloro-2-fluorophenyl)-2-methyl-1,3-benzodioxol-4-yl]piperidin-1-yl}methyl)-3-(1,3-oxazol-5-ylmethyl)-3H-imidazo[4,5-b]pyridine-5-carboxylic acid]
5.3	87	150	93	–	–	–	CCc1ccc(C2(C)Oc3cccc(C4CCN(Cc5nc6ccc(C(=O)O)cc6n5CCOC)CC4)c3O2)cc1 (centres unmarked) [Example 29, 2-({4-[2-(4-ethylphenyl)-2-methyl-1,3-benzodioxol-4-yl]piperidin-1-yl}methyl)-1-(2-methoxyethyl)-1H-benzimidazole-6-carboxylic acid]
50	97	440	95	–	–	–	CC1(c2ccc(C#N)cc2F)Oc2cccc(C3CCN(Cc4nc5ccc(C(=O)O)cc5n4Cc4ncco4)CC3)c2O1 (centres unmarked) [Example 98, ammonium 2-({4-[2-(4-cyano-2-fluorophenyl)-2-methyl-1,3-benzodioxol-4-yl]piperidin-1-yl}methyl)-1-(1,3-oxazol-2-ylmethyl)-1H-benzimidazole-6-carboxylate]
47	83	1000	83	–	–	–	COCCn1c(CN2CCC(c3cccc4c3OC(C)(c3ccccc3)O4)CC2)nc2ccc(C(=O)O)cc21 (centres unmarked) [Example 82, 1-(2-methoxyethyl)-2-{[4-(2-methyl-2-phenyl-1,3-benzodioxol-4-yl)piperidin-1-yl]methyl}-1H-benzimidazole-6-carboxylic acid]
6.6	–	–	100	81	260	–	COCCn1c(CN2CCN(c3cccc4c3OC(c3ccc(Cl)cc3F)O4)CC2)nc2ccc(C(=O)O)cc21 (single isomer, unassigned) [Example 2, 2-({4-[2-(4-Chloro-2-fluorophenyl)-1,3-benzodioxol-4-yl]piperazin-1-yl}methyl)-1-(2-methoxyethyl)-1H-benzimidazole-6-carboxylic Acid]
0.77	93	7.6	100	–	–	–	CCn1nncc1Cn1c(CN2CCC(c3cccc4c3OC(C)(c3ccc(Cl)cc3F)O4)CC2)nc2ccc(C(=O)O)cc21 (centres unmarked) [Example 76, 2-({4-[2-(4-chloro-2-fluorophenyl)-2-methyl-1,3-benzodioxol-4-yl]piperidin-1-yl}methyl)-1-[(1-ethyl-1H-1,2,3-triazol-5-yl)methyl]-1H-benzimidazole-6-carboxylic acid]
6.8	80	74	80	–	–	–	CN(CCn1c(CN2CCC(c3cccc4c3OC(C)(c3ccc(Cl)cc3F)O4)CC2)nc2ccc(C(=O)O)cc21)S(C)(=O)=O (centres unmarked) [Example 71, 2-({4-[2-(4-chloro-2-fluorophenyl)-2-methyl-1,3-benzodioxol-4-yl]piperidin-1-yl}methyl)-1-{2-[methyl(methylsulfonyl)amino]ethyl}-1H-benzimidazole-6-carboxylic acid]
4.5	89	78	100	–	–	–	Cn1cnnc1Cn1c(CN2CCC(c3cccc4c3OC(C)(c3ccc(Cl)cc3F)O4)CC2)nc2ccc(C(=O)O)cc21 (centres unmarked) [Example 78, 2-({4-[2-(4-chloro-2-fluorophenyl)-2-methyl-1,3-benzodioxol-4-yl]piperidin-1-yl}methyl)-1-[(4-methyl-4H-1,2,4-triazol-3-yl)methyl]-1H-benzimidazole-6-carboxylic acid]
1600	87	> 20000	–	–	–	> 20000	O=C(O)c1ccc2nc(CN3CCC(c4cccc5c4O[C@H](c4ccc(Cl)cc4F)O5)CC3)n(C[C@@H]3CCO3)c2c1 [Example 4, Ammonium 2-({4-[(2R)-2-(4-chloro-2-fluorophenyl)-1,3-benzodioxol-4-yl]piperidin-1-yl}methyl)-1-[(2S)-oxetan-2-ylmethyl]-1H-benzimidazole-6-carboxylate]
18	86	450	87	–	–	–	COCCn1c(CN2CCC(c3cccc4c3OC(C)(c3ccc(OC)cc3)O4)CC2)nc2ccc(C(=O)O)cc21 (centres unmarked) [Example 32, 1-(2-methoxyethyl)-2-({4-[2-(4-methoxyphenyl)-2-methyl-1,3-benzodioxol-4-yl]piperidin-1-yl}methyl)-1H-benzimidazole-6-carboxylic acid]
10	100	8.3	98	–	–	–	CC1(c2ccc(Cl)cc2F)Oc2cccc(C3CCN(Cc4nc5ccc(C(=O)O)cc5n4Cc4cnco4)CC3)c2O1 (centres unmarked) [Example 69, 2-({4-[2-(4-chloro-2-fluorophenyl)-2-methyl-1,3-benzodioxol-4-yl]piperidin-1-yl}methyl)-1-(1,3-oxazol-5-ylmethyl)-1H-benzimidazole-6-carboxylic acid]
12	87	140	92	–	–	–	CC1(c2ccc(Cl)cc2F)Oc2cccc(C3CCN(Cc4nc5ccc(C(=O)O)cc5n4CCn4ccnc4)CC3)c2O1 (centres unmarked) [Example 50, 2-({4-[2-(4-chloro-2-fluorophenyl)-2-methyl-1,3-benzodioxol-4-yl]piperidin-1-yl}methyl)-1-[2-(1H-imidazol-1-yl)ethyl]-1H-benzimidazole-6-carboxylic acid]
2.6	85	100	86	–	–	–	COCCn1c(CN2CCC(c3cccc4c3OC(C)(c3ccc(Cl)cc3)O4)CC2)nc2ccc(C(=O)O)cc21 (centres unmarked) [Example 33, 2-({4-[2-(4-chlorophenyl)-2-methyl-1,3-benzodioxol-4-yl]piperidin-1-yl}methyl)-1-(2-methoxyethyl)-1H-benzimidazole-6-carboxylic acid]
1.2	87	11	81	–	–	–	CC1(c2ccc(Cl)cc2F)Oc2cccc(C3CCN(Cc4nc5ccc(C(=O)O)cc5n4CC4CCOC4)CC3)c2O1 (centres unmarked) [Example 56, 2-({4-[2-(4-chloro-2-fluorophenyl)-2-methyl-1,3-benzodioxol-4-yl]piperidin-1-yl}methyl)-1-(tetrahydrofuran-3-ylmethyl)-1H-benzimidazole-6-carboxylic acid]
32	85	570	80	–	–	–	CNC(=O)Cn1c(CN2CCC(c3cccc4c3OC(C)(c3ccc(Cl)cc3F)O4)CC2)nc2ccc(C(=O)O)cc21 (centres unmarked) [Example 52, 2-({4-[2-(4-chloro-2-fluorophenyl)-2-methyl-1,3-benzodioxol-4-yl]piperidin-1-yl}methyl)-1-[2-(methylamino)-2-oxoethyl]-1H-benzimidazole-6-carboxylic acid]
9.1	93	100	86	–	–	–	COCCn1c(CN2CCC(c3cccc4c3OC(C)(c3ccc(C)cc3)O4)CC2)nc2ccc(C(=O)O)cc21 (centres unmarked) [Example 84, 1-(2-methoxyethyl)-2-({4-[2-methyl-2-(4-methylphenyl)-1,3-benzodioxol-4-yl]piperidin-1-yl}methyl)-1H-benzimidazole-6-carboxylic acid]
14000	100	> 20000	–	–	–	–	COCCn1c(CN2CCC(c3cccc4c3OC(C)(c3ccc(Cl)cn3)O4)CC2)nc2ccc(C(=O)O)cc21 (centres unmarked) [Example 91, ammonium 2-({4-[2-(5-chloropyridin-2-yl)-2-methyl-1,3-benzodioxol-4-yl]piperidin-1-yl}methyl)-1-(2-methoxyethyl)-1H-benzimidazole-6-carboxylate]
9.2	94	91	80	–	–	–	CC1(c2ccc(Cl)cc2F)Oc2cccc(C3CCN(Cc4nc5ccc(C(=O)O)cc5n4C[C@H]4CCCO4)CC3)c2O1 (stereo partly drawn) [Example 64, 2-({4-[2-(4-chloro-2-fluorophenyl)-2-methyl-1,3-benzodioxol-4-yl]piperidin-1-yl}methyl)-1-[(2R)-tetrahydrofuran-2-ylmethyl]-1H-benzimidazole-6-carboxylic acid]
19	80	280	81	–	–	–	CCn1ccnc1Cn1c(CN2CCC(c3cccc4c3OC(C)(c3ccc(Cl)cc3F)O4)CC2)nc2ccc(C(=O)O)cc21 (centres unmarked) [Example 51, 2-({4-[2-(4-chloro-2-fluorophenyl)-2-methyl-1,3-benzodioxol-4-yl]piperidin-1-yl}methyl)-1-[(1-ethyl-1H-imidazol-2-yl)methyl]-1H-benzimidazole-6-carboxylic acid]
91	78	–	74	–	2000	–	COCCn1c(CN2CCC(c3cccc4c3OC(C)(c3ccc(F)c(F)c3)O4)CC2)nc2ccc(C(=O)O)cc21 (centres unmarked) [Example 41, 2-({4-[2-(3,4-difluorophenyl)-2-methyl-1,3-benzodioxol-4-yl]piperidin-1-yl}methyl)-1-(2-methoxyethyl)-1H-benzimidazole-6-carboxylic acid]
81	100	1000	83	–	–	–	COCCn1c(CN2CCC(c3cccc4c3OC(C)(c3ccccc3OC)O4)CC2)nc2ccc(C(=O)O)cc21 (centres unmarked) [Example 37, 1-(2-methoxyethyl)-2-({4-[2-(2-methoxyphenyl)-2-methyl-1,3-benzodioxol-4-yl]piperidin-1-yl}methyl)-1H-benzimidazole-6-carboxylic acid]
